According to patent US5616712A, “Acetylenes disubstituted with a phenyl or heteroaryl group and a 2-thio-1,2,3,4-tetrahdroquinolinyl, 2-alkylthio-3,4-dihydroquinolinyl or 2-alkoxy-3,4-dihydroquinolinyl group having retinoid-like biological activity” (Allergan, priority 1995, dated 1997):

Experiments:
[1] = tested on: ornithine decarboxylase (ODC); test: Inhibition of TPA induction of ornithine decarboxylase (ODC) (Table 2); format: cell-based; settings: concentration which results in 80 per cent inhibition of the ODC induction activity by TPA
Excerpt: The retinoid-like activity of these compounds is confirmed through the classic measure of retinoic acid activity involving the effects of retinoic acid on ornithine decarboxylase. The original work on the correlation between retinoic acid and decrease in cell proliferation was done by Verma & Boutwell, Cancer Research, 1977, 37,2196-2201. That reference discloses that ornithine decarboxylase (ODC) activity increased precedent to polyamine biosynthesis. It has been established elsewhere that increases. in polyamine synthesis can be correlated or associated with cellular proliferation. Thus, if ODC activity could be inhibited, cell hyperproliferation could be modulated. […] IC80 is that concentration of the test compound (expresed in nanomolar (nmol)) which results in 80 per cent inhibition of the ODC induction activity by TPA.

[2] = tested on: ornithine decarboxylase (ODC); settings: qualitative; cited from earlier work

| SMILES | IC80 [1] | other results |
| --- | --- | --- |
| CCOC(=O)c1ccc(C#Cc2ccc3c(c2)C(C)(C)CC(OC(C)C)=N3)cc1 [Compound 6, Ethyl 4-[(4,4-dimethyl-2-isopropoxy-3,4-dihydro-6-quinolinyl)ethynyl]benzoate] | > 0.1 µM | – |
| CCOC(=O)c1ccc(C#Cc2ccc3c(c2)C(C)(C)CC(SC)=N3)cc1 [Compound 9, Ethyl 4-[(4,4-dimethyl-2-methylthio-3,4-dihydro-6-quinolinyl)ethynyl]benzoate] | 0.029 µM | – |
| CC1=C(/C=C/C(C)=C/C=C/C(C)=C/C(=O)O)C(C)(C)CCC1 [Retinoic acid] | – | inhibition of TPA induction of ODC activity [2]: inhibits this induction of ODC activity by TPA |
| CCOC(=O)c1ccc(C#Cc2ccc3c(c2)C(C)(C)CC(=O)N3C(C)C)cc1 [Compound 5] | 0.0064 µM | – |
| CCOC(=O)c1ccc(C#Cc2ccc3c(c2)C(C)(C)CC(=S)N3)cc1 [Compound 8, Ethyl 4-[(4,4-dimethyl-2-thio-1,2,3,4-tetrahydro-6quinolinyl)ethynyl]benzoate] | 0.054 µM | – |
| CCCCCCCCCCCCCC(=O)O[C@@H]1[C@@H](C)[C@@]2(O)[C@@H](C=C(CO)C[C@]3(O)C(=O)C(C)=C[C@@H]23)[C@@H]2C(C)(C)[C@]12OC(C)=O [12-0-tetradecanoylphorbol-13-acetate] | – | induction of ODC activity [2]: induces ODC activity |
| CCOC(=O)c1ccc(C#Cc2ccc3c(c2)C(C)(C)CC(=S)N3C(C)C)cc1 [Compound 7, Ethyl 4-[(4,4-dimethyl-2-thio-1,2,3,4-tetrahydro-1-iso-propyl-6-quinolinyl)ethynyl]benzoate] | 0.0055 µM | – |
| CCCCCCCSC1=Nc2ccc(C#Cc3ccc(C(=O)OCC)cc3)cc2C(C)(C)C1 [Compound 10, Ethyl 4-[(4,4-dimethyl-2-heptylthio-3,4-dihydro-6-quinolinyl)ethynyl]benzoate] | > 0.06 µM | – |
